This note sets out measurements from patent EP3046573B1, “AMYLIN ANALOGUES” (Zealand Pharma A/S, priority 2013, dated 2015).

Where two headings read alike, the source gives them in different places. Numbered stars: 1 amine (or outer) side, 2 acyl side, 3 side chain; on linkers, the order of the positions; unused ones are H or OH. Bridge positions count the residues as written; N and C are the ends. Square brackets hold non-standard residues; d marks the D form. Peptide text beside a SMILES is read from it. * marks the point of attachment. C20 diacid = O=C(O)CCCCCCCCCCCCCCCCCCC(=O)*; γGlu = O=C(O)[C@H](CCC(=O)[*:2])N[*:1]; NMeI = CC[C@H](C)[C@H](NC)C(=O)O; Sar = CNCC(=O)O

In data set [1] the target is T1, human calcitonin receptor (hCTR2) (Homo sapiens, UniProt P30988).
T1 construct: expressed in transfected cells
T1 sequence (P30988 25-474): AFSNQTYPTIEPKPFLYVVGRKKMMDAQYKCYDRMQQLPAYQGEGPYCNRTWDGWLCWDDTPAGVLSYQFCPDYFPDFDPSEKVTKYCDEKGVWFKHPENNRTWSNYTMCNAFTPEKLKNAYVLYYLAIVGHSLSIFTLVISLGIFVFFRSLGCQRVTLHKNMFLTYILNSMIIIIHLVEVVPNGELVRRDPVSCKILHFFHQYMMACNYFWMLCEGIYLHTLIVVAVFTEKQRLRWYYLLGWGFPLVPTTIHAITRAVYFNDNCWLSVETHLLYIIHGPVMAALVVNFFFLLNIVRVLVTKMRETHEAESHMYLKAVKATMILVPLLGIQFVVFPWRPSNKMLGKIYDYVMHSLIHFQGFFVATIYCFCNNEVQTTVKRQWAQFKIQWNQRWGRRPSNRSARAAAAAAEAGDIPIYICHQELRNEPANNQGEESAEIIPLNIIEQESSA
As to the kind of experiment: hCTR2 assay: induction of cAMP (AlphaScreen cAMP Assay kit) in COS7 cells expressing hCTR2. Format: cell-based. In short, it runs like this:
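Cells were seeded one day ahead, washed, then exposed to rising peptide concentrations for 15 min at 37° C in the presence of 100 µM IBMX. After lysis for 10 min at room temperature, cAMP was quantified by AlphaScreen and EC50 values derived by 4PL fitting.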

A short description of data set [2]: Solubility assessment (turbidity absorbance at 325 nm). The class given is physicochemical. Conditions: stock 2 mg/ml diluted 1:1, ambient temperature (typically 25°C), n=1; for Solubility, Acetate buffer pH 4: 100 mM acetate buffer pH 4.0; for Solubility, Acetate buffer pH 5: 100 mM acetate buffer pH 5.0; for Solubility, Histidine buffer pH 6: 100 mM histidine buffer pH 6.0; for Solubility, Histidine buffer pH 7: 100 mM histidine buffer pH 7.0; for Solubility, Phosphate buffer pH 6: 100 mM phosphate buffer pH 6.0; for Solubility, Phosphate buffer pH 7: 100 mM phosphate buffer pH 7.0; for Solubility, Phosphate buffer pH 7.5: 100 mM phosphate buffer pH7.5. The method in brief:
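Turbidimetric screen across pH 4.0–7.5 in 100 mM acetate, histidine and phosphate buffers. A 2 mg/ml peptide stock (pH 2.5) was diluted 1:1 into each, then A325 measured at ambient temperature; values ≤ 0.02 AU denoted solubility of 1 mg/ml or more.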

Where [3] appears, read: cAMP induction in COS7 cells expressing hCTR2, average of a minimum of 3 determinations, read-out: hCTR2 EC50.

For the compound `CC[C@H](C)[C@@H](C(=O)N[C@@H](CC(C)C)C(=O)N[C@@H](CO)C(=O)N[C@@H](CO)C(=O)N[C@H](C(=O)N[C@@H](CC(N)=O)C(=O)N[C@H](C(=O)NCC(=O)N[C@@H](CO)C(=O)N[C@@H](CC(N)=O)C(=O)N[C@H](C(=O)N1CCC[C@H]1C(N)=O)[C@@H](C)O)C(C)C)[C@@H](C)O)N(C)C(=O)[C@H](C)NC(=O)CN(C)C(=O)[C@H](Cc1ccccc1)NC(=O)[C@H](CC(N)=O)NC(=O)[C@H](CC(N)=O)NC(=O)[C@H](CO)NC(=O)[C@H](CO)NC(=O)[C@H](CC(C)C)NC(=O)[C@H](Cc1ccccc1)NC(=O)[C@H](CCC(=O)O)NC(=O)[C@H](C)NC(=O)[C@H](CC(C)C)NC(=O)[C@H](CCCNC(=N)N)NC(=O)[C@H](CCC(N)=O)NC(=O)[C@@H](NC(=O)[C@H](C)NC(=O)[C@@H]1CSSC[C@H](NC(=O)[C@H](CCCNC(=N)N)NC(=O)CC[C@H](NC(=O)CCCCCCCCCCCCCCCCCCC(=O)O)C(=O)O)C(=O)N[C@@H](CC(N)=O)C(=O)N[C@@H]([C@@H](C)O)C(=O)N[C@@H](C)C(=O)N[C@@H]([C@@H](C)O)C(=O)N1)[C@@H](C)O` [Compound 41, [19CD]-isoGlu-RC()NTATC()ATQRLAEFLSSNNF-Gly(Me)-A-Ile(Me)-LSSTNVGSNTP-NH2] ({C20 diacid-γGlu}-RCNTATCATQRLAEFLSSNNF[Sar]A[NMeI]LSSTNVGSNTP-NH2; disulfide 2-7), the EC50 in data set [1] was 0.071 nM. Moreover, in data set [2], the “Solubility, Acetate buffer pH 4” value is recorded as “SS (SS indicates solubility ≥ 1mg/ml)”; the “Solubility, Acetate buffer pH 5” value is recorded as “SS (SS indicates solubility ≥ 1mg/ml)”; the “Solubility, Histidine buffer pH 6” value is “SS (SS indicates solubility ≥ 1mg/ml)”; the “Solubility, Histidine buffer pH 7” value is listed as “SS (SS indicates solubility ≥ 1mg/ml)”. In data set [2], the “Solubility, Phosphate buffer pH 6” value is reported as “SS (SS indicates solubility ≥ 1mg/ml)”; the “Solubility, Phosphate buffer pH 7” value is on record as “SS (SS indicates solubility ≥ 1mg/ml)”; the “Solubility, Phosphate buffer pH 7.5” value is “SS (SS indicates solubility ≥ 1mg/ml)”.

Consider `CC[C@H](C)[C@@H](C(=O)N[C@@H](CC(C)C)C(=O)N[C@@H](CO)C(=O)N[C@@H](CO)C(=O)N[C@H](C(=O)N[C@@H](CC(N)=O)C(=O)N[C@H](C(=O)NCC(=O)N[C@@H](CO)C(=O)N[C@@H](CC(N)=O)C(=O)N[C@H](C(=O)N1CCC[C@H]1C(N)=O)[C@@H](C)O)C(C)C)[C@@H](C)O)N(C)C(=O)CN(C)C(=O)[C@H](Cc1ccccc1)NC(=O)[C@H](CC(N)=O)NC(=O)[C@H](CC(N)=O)NC(=O)[C@H](CO)NC(=O)[C@H](CO)NC(=O)[C@H](CC(C)C)NC(=O)[C@H](Cc1ccccc1)NC(=O)[C@H](CCC(=O)O)NC(=O)[C@H](C)NC(=O)[C@H](CC(C)C)NC(=O)[C@H](CCCNC(=N)N)NC(=O)[C@H](CCC(N)=O)NC(=O)[C@@H](NC(=O)[C@H](C)NC(=O)[C@@H]1CSSC[C@H](NC(=O)[C@H](CCCNC(=N)N)NC(=O)CC[C@H](NC(=O)CCCCCCCCCCCCCCCCCCC(=O)O)C(=O)O)C(=O)N[C@@H](CC(N)=O)C(=O)N[C@@H]([C@@H](C)O)C(=O)N[C@@H](C)C(=O)N[C@@H]([C@@H](C)O)C(=O)N1)[C@@H](C)O` [Compound 42, [19CD]-isoGlu-RC()NTATC()ATQRLAEFLSSNNF-Gly(Me)-Ile(Me)-LSSTNVGSNTP-NH2] ({C20 diacid-γGlu}-RCNTATCATQRLAEFLSSNNF[Sar][NMeI]LSSTNVGSNTP-NH2; disulfide 2-7), for which the concentration giving a half-maximal response (EC50) in data set [1] (setting [3]) is 0.12 nM. In data set [2], the “Solubility, Acetate buffer pH 4” value is on record as “SS (SS indicates solubility ≥ 1mg/ml)”; the “Solubility, Acetate buffer pH 5” value is “SS (SS indicates solubility ≥ 1mg/ml)”; the “Solubility, Histidine buffer pH 6” value is “SS (SS indicates solubility ≥ 1mg/ml)”; the “Solubility, Histidine buffer pH 7” value is “SS (SS indicates solubility ≥ 1mg/ml)”. Also, in data set [2], the “Solubility, Phosphate buffer pH 6” value is “SS (SS indicates solubility ≥ 1mg/ml)”; the “Solubility, Phosphate buffer pH 7” value is listed as “SS (SS indicates solubility ≥ 1mg/ml)”; the “Solubility, Phosphate buffer pH 7.5” value is recorded as “SS (SS indicates solubility ≥ 1mg/ml)”.

Regarding `CC[C@H](C)[C@@H](C(=O)N[C@@H](CC(C)C)C(=O)N[C@@H](CO)C(=O)N[C@@H](CO)C(=O)N[C@H](C(=O)N[C@@H](CC(N)=O)C(=O)N[C@H](C(=O)NCC(=O)N[C@@H](CO)C(=O)N[C@@H](CC(N)=O)C(=O)N[C@H](C(=O)N1CCC[C@H]1C(N)=O)[C@@H](C)O)C(C)C)[C@@H](C)O)N(C)C(=O)[C@H](C)NC(=O)CN(C)C(=O)[C@H](Cc1ccccc1)NC(=O)[C@H](CC(N)=O)NC(=O)[C@H](CO)NC(=O)[C@H](CO)NC(=O)[C@H](Cc1c[nH]cn1)NC(=O)[C@H](Cc1c[nH]cn1)NC(=O)[C@H](CC(C)C)NC(=O)[C@H](Cc1ccccc1)NC(=O)[C@H](CCC(=O)O)NC(=O)[C@H](C)NC(=O)[C@H](CC(C)C)NC(=O)[C@H](CCCNC(=N)N)NC(=O)[C@H](CCC(N)=O)NC(=O)[C@@H](NC(=O)[C@H](C)NC(=O)[C@@H]1CSSC[C@H](NC(=O)[C@H](CCCNC(=N)N)NC(=O)CC[C@H](NC(=O)CCCCCCCCCCCCCCCCCCC(=O)O)C(=O)O)C(=O)N[C@@H](CC(N)=O)C(=O)N[C@@H]([C@@H](C)O)C(=O)N[C@@H](C)C(=O)N[C@@H]([C@@H](C)O)C(=O)N1)[C@@H](C)O` [Compound 44, [19CD]-isoGlu-RC()NTATC()ATQRLAEFLHHSSNF-Gly(Me)-A-Ile(Me)-LSSTNVGSNTP-NH2] ({C20 diacid-γGlu}-RCNTATCATQRLAEFLHHSSNF[Sar]A[NMeI]LSSTNVGSNTP-NH2; disulfide 2-7), the EC50 in data set [1] (setting [3]) was 0.15 nM. Besides, in data set [2], the “Solubility, Acetate buffer pH 4” value is given as “SS (SS indicates solubility ≥ 1mg/ml)”; the “Solubility, Acetate buffer pH 5” value is given as “II (II indicates solubility ≤ 1 mg/ml)”; the “Solubility, Histidine buffer pH 6” value is recorded as “II (II indicates solubility ≤ 1 mg/ml)”; the “Solubility, Histidine buffer pH 7” value is on record as “SS (SS indicates solubility ≥ 1mg/ml)”. In addition, in data set [2], the “Solubility, Phosphate buffer pH 6” value was “SS (SS indicates solubility ≥ 1mg/ml)”; the “Solubility, Phosphate buffer pH 7” value is “SS (SS indicates solubility ≥ 1mg/ml)”; the “Solubility, Phosphate buffer pH 7.5” value is listed as “SS (SS indicates solubility ≥ 1mg/ml)”.

As usually defined, the EC50 is the concentration at which the effect is half-maximal.
